Measurements taken from patent US12269800B2, “Delivery of therapeutic alkaloid compounds” (priority 2021, dated 2025).
Read-outs that look alike come from different tables or passages of the source.

Tests used:
[1] = format: physicochemical; conditions: DI water, 25° C., 0.5 mM
[2] = Hydrolysis Assay of Example A2, Condition 1 (SGF with pepsin, pH 1.5, 37° C.); format: physicochemical; conditions: SGF with pepsin pH 1.5, 37° C., 0.5 mM
[3] = 5 µM
Description: (§1) 50 uL aliquots of positive controls and test compounds spiked into rat or human plasma (n=2) were added to a pre-warmed plate (37° C.) and shaken at 50 rpm. At each respective time point, the reaction was stopped by adding 500 μL of acetonitrile containing internal standards (100 nM aprozolam, 200 nM caffeine, 100 nM tolbutamide). All samples were vortexed for 10 minutes, followed by centrifugation at 3,220 g for 30 minutes to precipitate proteins. 100 μL of the supernatant is transferred to a new plate. The supernatant will be diluted with ultrapure water according to the LC-MS signal response and peak shape.

[4] = 5 µM; remark: listed apart in the source
Description: as §1

[5] = Plasma Stability Assay of Example A3, mouse plasma; conditions: % of prodrug compound remaining, 37° C.
[6] = Plasma Stability Assay of Example A3, human plasma; conditions: % of prodrug compound remaining, 37° C.

SMILES | Condition 2 Conversion (%) ([1]; time 1 min) | Condition 2 Conversion (%) ([1]; time 5 min) | Condition 2 Conversion (%) ([1]; time 30 min) | Condition 2 Conversion (%) ([1]; time 1 h) | Condition 2 Conversion (%) ([1]; time 4 h) | Condition 2 Conversion (%) ([1]; time 24 h) | Condition 1 Conversion (%) ([2]; time 1 min) | Condition 1 Conversion (%) ([2]; time 5 min) | Condition 1 Conversion (%) ([2]; time 30 min) | Condition 1 Conversion (%) ([2]; time 1 h) | Condition 1 Conversion (%) ([2]; time 4 h) | Condition 1 Conversion (%) ([2]; time 24 h) | Rat Plasma Prodrug (%) ([3]; 0 min) | Rat Plasma Prodrug (%) ([3]; 10 min) | Rat Plasma Prodrug (%) ([3]; 30 min) | Rat Plasma Prodrug (%) ([3]; 60 min) | Rat Plasma Prodrug (%) ([3]; 120 min) | Rat Plasma Prodrug (%) ([3]; 240 min) | Human Plasma Prodrug (%) ([4]; 0 min) | Human Plasma Prodrug (%) ([4]; 10 min) | further results
COc1ccc([C@@]23CCC(=NNC(=O)c4ccc(F)cc4)C[C@@H]2N(C)CC3)cc1OC [Compound 220, N-[[(3aS)-3a-(3,4-dimethoxyphenyl)-1-methyl-2,3,4,5,7,7a-hexahydroindol-6-ylidene]amino]-4-fluoro-benzamide] | 20.02 | 21.53 | 22.27 | 55.36 | 88.25 | 89.93 | – | – | – | – | – | – | – | – | – | – | – | – | – | – | –
COc1ccc([C@@]23CCC(=NNC(=O)CCCC(=O)O)C[C@@H]2N(C)CC3)cc1OC [Compound 246, 5-(2-((3aS,7aS)-3a-(3,4-dimethoxyphenyl)-1-methyloctahydro-6H-indol-6-ylidene)hydrazineyl)-5-oxopentanoic acid] | 40 | 50 | 60 | 75 | 100 | 100 | 100 | 100 | 100 | 100 | 100 | 100 | – | – | – | – | – | – | – | – | –
COc1ccc([C@@]23CCC(OC(=O)c4cccc(C)c4C)=C[C@@H]2N(C)CC3)cc1OC [Compound 373, (3aS,7aS)-3a-(3,4-dimethoxyphenyl)-1-methyl-2,3,3a,4,5,7a-hexahydro-1H-indol-6-yl 2,3-dimethylbenzoate] | – | – | – | – | – | – | – | – | – | – | – | – | 100.0 | 81.0 | 58.4 | 26.8 | 5.2 | 1.3 | 100.0 | 96.3 | Human Plasma Prodrug (%) ([4]; 30 min): >99%; Human Plasma Prodrug (%) ([4]; 60 min): 94.8%; Human Plasma Prodrug (%) ([4]; 120 min): 89.9%; Human Plasma Prodrug (%) ([4]; 240 min): 96.3%; Mouse Plasma Prodrug (%) ([5]; 0.0 min): 100%; Mouse Plasma Prodrug (%) ([5]; 15 min): 82%; Mouse Plasma Prodrug (%) ([5]; 30 min): 64%; Mouse Plasma Prodrug (%) ([5]; 60 min): 41%; Mouse Plasma Prodrug (%) ([5]; 120 min): 12%; Mouse Plasma Prodrug (%) ([5]; 240 min): 1%; Human Plasma Prodrug (%) ([6]; 0.0 min): 100%
COc1ccc([C@]23CCN(C)[C@H]2CC2(CC3)Oc3ccccc3O2)cc1OC [Compound 300, (3′aS,7′aS)-3′a-(3,4-dimethoxyphenyl)-1′-methyl-spiro[1,3-benzodioxole-2,6′-2,3,4,5,7,7a-hexahydroindole]] | 0 | 0 | 0 | 0 | 0 | 0 | 0 | 0 | 0 | 0 | 0 | 0 | – | – | – | – | – | – | – | – | –
COc1ccc([C@]23CCN(C)[C@H]2CC2(CC3)OCC(COc3ccccc3OC)O2)cc1OC (stereo partly drawn) [Compound 216, (3′aS,7′aS)-3′a-(3,4-dimethoxyphenyl)-4-[(2-methoxyphenoxy)methyl]-1′-methyl-spiro[1,3-dioxolane-2,6′-2,3,4,5,7,7a-hexahydroindole]] | 0 | 0 | 0 | 0 | 0 | 0 | 0 | 0 | 0 | 0 | 0 | 0 | – | – | – | – | – | – | – | – | –
COc1ccc([C@@]23CCC(OC(=O)c4ccc(C(C)C)cc4)=C[C@@H]2N(C)CC3)cc1OC [Compound 371, (3aS,7aS)-3a-(3,4-dimethoxyphenyl)-1-methyl-2,3,3a,4,5,7a-hexahydro-1H-indol-6-yl 4-isopropylbenzoate] | – | – | – | – | – | – | – | – | – | – | – | – | 100.0 | 5.0 | 0.2 | 0.1 | 0.0 | 0.0 | 100.0 | >99 | Human Plasma Prodrug (%) ([4]; 30 min): 94.4%; Human Plasma Prodrug (%) ([4]; 60 min): 90.7%; Human Plasma Prodrug (%) ([4]; 120 min): 91.3%; Human Plasma Prodrug (%) ([4]; 240 min): 78.0%; Mouse Plasma Prodrug (%) ([5]; 0.0 min): 100%; Mouse Plasma Prodrug (%) ([5]; 15 min): 10%; Mouse Plasma Prodrug (%) ([5]; 30 min): 0%; Mouse Plasma Prodrug (%) ([5]; 60 min): 0%; Mouse Plasma Prodrug (%) ([5]; 120 min): 0%; Mouse Plasma Prodrug (%) ([5]; 240 min): 0%; Human Plasma Prodrug (%) ([6]; 0.0 min): 100%; Human Plasma Prodrug (%) ([6]; 15 min): 99%; Human Plasma Prodrug (%) ([6]; 30 min): 92%; Human Plasma Prodrug (%) ([6]; 60 min): 87%; Human Plasma Prodrug (%) ([6]; 120 min): 78%; Human Plasma Prodrug (%) ([6]; 240 min): 27%
CCCCC(=O)OC1=C[C@@H]2N(C)CC[C@]2(c2ccc(OC)c(OC)c2)CC1 [Compound 268, N-[[(3aS,7aS)-3a-(3,4-dimethoxyphenyl)-1-methyl-3,4,5,7a-tetrahydro-2H-indol-6-yl] pentanoate] | 0 | 0 | 0 | 0 | 0 | 0 | 0 | 0 | 0 | 0 | 0 | 0 | – | – | – | – | – | – | – | – | –
COc1ccc([C@@]23CC/C(=N/NC(=O)Nc4ccccc4Cl)C[C@@H]2N(C)CC3)cc1OC [Compound 270, 1-[(Z)—[(3aS,7aS)-3a-(3,4-dimethoxyphenyl)-1-methyl-2,3,4,5,7,7a-hexahydroindol-6-ylidene]amino]-3-(2-chlorophenyl)urea] | – | – | – | – | 1 | 1 | – | – | – | – | 1 | 1 | – | – | – | – | – | – | – | – | –
COc1ccc([C@]23CCN(C)[C@H]2CC2(CC3)OCC(C34CC5CC(CC(C5)C3)C4)O2)cc1OC (stereo partly drawn) [Compound 281, (3′aS,7′aS)-4-(1-adamantyl)-3′a-(3,4-dimethoxyphenyl)-1′-methyl-spiro[1,3-dioxolane-2,6′-2,3,4,5,7,7a-hexahydroindole]] | 0 | 0 | 0 | 0 | 0 | 0 | 0 | 0 | 0 | 0 | 0 | 0 | – | – | – | – | – | – | – | – | –
COc1ccc([C@@]23CCC(OC(=O)c4c(C)cccc4C)=C[C@@H]2N(C)CC3)cc1OC [Compound 372, (3aS,7aS)-3a-(3,4-dimethoxyphenyl)-1-methyl-2,3,3a,4,5,7a-hexahydro-1H-indol-6-yl 2,6-dimethylbenzoate] | – | – | – | – | – | – | – | – | – | – | – | – | 100.0 | >99 | >99 | >99 | 98.4 | >99 | 100.0 | >99 | Human Plasma Prodrug (%) ([4]; 30 min): >99%; Human Plasma Prodrug (%) ([4]; 60 min): >99%; Human Plasma Prodrug (%) ([4]; 120 min): >99%; Human Plasma Prodrug (%) ([4]; 240 min): >99%; Mouse Plasma Prodrug (%) ([5]; 0.0 min): 100%; Mouse Plasma Prodrug (%) ([5]; 15 min): 92%; Mouse Plasma Prodrug (%) ([5]; 30 min): 91%; Mouse Plasma Prodrug (%) ([5]; 60 min): 88%; Mouse Plasma Prodrug (%) ([5]; 120 min): 73%; Mouse Plasma Prodrug (%) ([5]; 240 min): 64%; Human Plasma Prodrug (%) ([6]; 0.0 min): 100%; Human Plasma Prodrug (%) ([6]; 15 min): 97%; Human Plasma Prodrug (%) ([6]; 30 min): 99%; Human Plasma Prodrug (%) ([6]; 60 min): 94%; Human Plasma Prodrug (%) ([6]; 120 min): 81%; Human Plasma Prodrug (%) ([6]; 240 min): 38%
COc1ccc([C@@]23CCC(OC(=O)c4cccc(C)c4)=C[C@@H]2N(C)CC3)cc1OC [Compound 374, (3aS,7aS)-3a-(3,4-dimethoxyphenyl)-1-methyl-2,3,3a,4,5,7a-hexahydro-1H-indol-6-yl 3-methylbenzoate] | – | – | – | – | – | – | – | – | – | – | – | – | 100.0 | 9.7 | 0.3 | 0.1 | 0.0 | 0.0 | 100.0 | >99 | Human Plasma Prodrug (%) ([4]; 30 min): >99%; Human Plasma Prodrug (%) ([4]; 60 min): >99%; Human Plasma Prodrug (%) ([4]; 120 min): >99%; Human Plasma Prodrug (%) ([4]; 240 min): 95.4%; Mouse Plasma Prodrug (%) ([5]; 0.0 min): 100%; Mouse Plasma Prodrug (%) ([5]; 15 min): 33%; Mouse Plasma Prodrug (%) ([5]; 30 min): 4%; Mouse Plasma Prodrug (%) ([5]; 60 min): 0%; Mouse Plasma Prodrug (%) ([5]; 120 min): 0%; Mouse Plasma Prodrug (%) ([5]; 240 min): 0%; Human Plasma Prodrug (%) ([6]; 0.0 min): 100%; Human Plasma Prodrug (%) ([6]; 15 min): 98%; Human Plasma Prodrug (%) ([6]; 30 min): 88%; Human Plasma Prodrug (%) ([6]; 60 min): 84%; Human Plasma Prodrug (%) ([6]; 120 min): 62%; Human Plasma Prodrug (%) ([6]; 240 min): 11%
